Patent publication US10967047B2, “Mitochondrial antiviral-signaling (MAVS) polypeptides and detection and use thereof” (University of Vermont and State Agricultural College, priority 2016, dated 2021)

How the values were obtained:
[1] = tested on: MEFs; test: Mitochondrial transmembrane potential (ΔΨm) by FACS using TMRE in MEFs; assay type: cell-based, mouse
Protocol: ROS generation was measured using oxidized, green-fluorescent dihydrocalcein acetoxymethylester (DHC-AM) (Life Technologies) and flow cytometry. Single-cell suspensions of MEFs were prepared and ROS was assessed with 5 μM DHC-AM staining in culture medium for 30 minutes (A. Rohnstock et al., (2007) Toxicol in Vitro 21, 1552-1562). 25 nM of cationic cell permeant dye tetramethylrhodamine ethylester (TMRE; Life Technologies) (R. C. Scaduto, Jr. et al., (1999), Biophysical journal 76, 469-477) were used to measure ΔΨm. Additionally, MitoSox Red and MitoTracker Deep Red (Life Technologies) were used to measure mitochondrial ROS and mitochondrial mass, respectively. Flow cytometry was carried out on an LSRII (BD Biosciences), and FlowJo software (Tree Star) was used for analysis.

[2] = tested on: MAVS; test: MAVS oligomerization in purified MEF mitochondria, with or without SLE patient-derived MAVS oligomers; set-up: species or system mouse
Protocol: MAVS antibody was covalently coupled to protein G magnetic beads (Life Technologies) using the bi-functional amine-reactive cross-linker disuccinimidyl suberate (DSS; Thermo Scientific). To avoid a sample contamination with proteins or protein complexes that nonspecifically bind to protein G, plasma samples were pre-incubated with protein G magnetic beads without the cross-linked MAVS antibody. SLE patient plasma were incubated for 6 hours, after which the magnetic beads were loaded onto a column in a magnetic field and extensively washed. After the beads were eluted, MAVS-oligomers were released from MAVS-antibody by way of increasing ionic strength buffer, lower pH and gel filtration. Functionally intact mitochondria from cultured cells were isolated as described earlier (S. Schmitt et al., (2013) Analytical biochemistry 443, 66-74). This method comprises a mechanical cell rupture, followed by a precipitation of mitochondria from cell lysates using magnetically labeled anti-TOM22 (Miltenyi Biotec) antibody. […] The reaction mixtures were centrifuged at 10,000×g for 10 min, and the precipitates then analyzed using SDD-AGE.

[3] = tested on: MAVS; test: MAVS oligomerization in MEFs (semi-denaturing gel electrophoresis, immunoblot, densitometry); assay type: cell-based, mouse
Protocol: 5′ triphosphate double-stranded RNA (5′-ppp-dsRNA), a synthetic ligand for RIG-I, was purchased from InVivoGen and used at a concentration of 1 μg/mL. Mitochondria-targeted antioxidant MitoQ and the mitochondria-targeted superoxide generator MitoPQ, were gifts of M. Murphy (G. F. Kelso et al., (2001) The Journal of biological chemistry 276, 4588-4596). The control reagent TPP was purchased from Sigma. Reagents were added to cells at concentrations as indicated. GOx was purchased from Sigma and added to cultured cells at a final concentration of 0.1 U/mL. Iodoacetamide was from Thermo Fisher, and used at a final concentration of 100 μM.
Cultured MEFs or human PBMCs were lysed in a sample buffer containing 2% SDS and insoluble cell fragments were removed by centrifugation. Plasma samples derived from SLE patients were collected and stored at −20° C. until gel electrophoresis. BCA protein assay (Thermo Scientific) was used to determine protein concentrations in all samples were resolved with SDS-PAGE under denaturing conditions. Gels were transferred to PVDF membranes using a Trans-Blot Turbo Transfer System (BioRad).
SDD-AGE was performed according to a published protocol with minor modifications (Alberti et al., (2009) Cell 137, 146-158). In brief, mitochondria were resuspended in sample buffer (0.5×TBE, 10% glycerol, 2% SDS, and 0.0025% bromophenol blue) and loaded onto a vertical 1.5% agarose gel. After electrophoresis in the running buffer (1×TBE and 0.1% SDS) for 35 min with a constant voltage of 75 V at 4° C., proteins were transferred to PVDF membranes using a Trans-Blot Turbo Transfer System (BioRad) for immunoblotting.
PVDF membranes were blocked in 5% solution of nonfat powdered milk in Tris-buffered saline. Antibodies used were specific for MAVS and Actin (Santa Cruz); RIPK1 and TRAF2 (BD Biosciences); TANK, TRADD, RIG-I, and GAPDH (Cell Signaling); MDAS and COX4 (Abcam), Alexa 488 (Life Technologies), and IRF3 (Thermo Fisher), respectively. Immunoreactive proteins were visualized using HRP-labeled conjugates (Jackson Immuno Research) and developed using Clarity Western ECL substrate (Biorad). Chemiluminescence was detected and recorded using a Biorad Chemidoc instrument. Densitometric measurements were performed in Image Lab image acquisition and analysis software (Biorad).

## COC1=C(OC)C(=O)C(CCCCCCCCCC[P+](c2ccccc2)(c2ccccc2)c2ccccc2)=C(C)C1=O.CS(=O)(=O)[O-] [MitoQ, [10-(4,5-Dimethoxy-2-methyl-3,6-dioxo-1,4-cyclohexadien-1-yl)decyl](triphenyl)phosphonium methanesulfonate]
[1]; MEF, GOx+/−MitoQ and SINV+/−MitoQ, TMRE (FIG. 3C)
  mitochondrial hyperpolarization (ΔΨm) with MitoQ: decreased mitochondrial hyperpolarization
[2]; mitochondria pretreated with MitoQ (FIG. 6C, lane 4)
  MAVS oligomerization induced by SLE plasma MAVS oligomers in isolated mitochondria: significantly decreased
[3]; MEFs pre-treated with 100 μM MitoQ, then GOx, oligomer/monomer ratio by densitometry (FIG. 3B)
  decrease in MAVS oligomers: ≥ 80%
[3]; MEFs pre-treated with 100 μM MitoQ, then SINV infection, densitometry (FIG. 3B)
  decrease in MAVS oligomerization: ~40%
[3]; MEFs pretreated (100 μM) before GOx or SINV (FIG. 3A)
  MAVS oligomerization after pretreatment: reduced MAVS oligomerization

## glucose oxidase [GOx]
[1]; MAVS-WT MEFs, not observed in MAVS-KO (FIG. 1B, 2D)
  ΔΨm induced by the substance: increased ΔΨm
[2]; GOx treatment, positive control (FIG. 6C, lane 2)
  induction of MAVS oligomerization in purified mitochondria: induced MAVS oligomerization
[3]; MEFs, substance alone (MitoPQ 1 to 10 nM, FIG. 2H; GOx, FIG. 2A)
  induction of MAVS oligomerization without viral infection: sufficient to induce MAVS oligomerization
